Data as given in US12630510B2, “EP2 antagonist” (ONO PHARMACEUTICAL CO., LTD., priority 2019, dated 2026).

Each compound was assayed against T1, human EP2 receptor (Homo sapiens, UniProt P43116) (assay: Experiment of measuring EP2 antagonistic activity using cells expressing prostanoid receptor (cAMP)). Conditions: CHO cells expressing human EP2 receptor; PGE2 10 nmol/L; cAMP quantified after 1 hour at room temperature; read-out: EP2_IC50.
T1 construct: expressed in transfected cells; host or cells: CHO cells
Assay type: cell-based
Procedure: CHO cells on each of which a human EP2 receptor had been expressed were prepared in accordance with the method by Nishigaki et al, (FEBS Letters, vol. 364, pp. 339-341, 1995) and were then cryopreserved in CELLBANKER2 (Nippon Zenyaku Kogyo Co., Ltd.) at a concentration of 1.5×10^7 cells/mL/vial. The CHO cells thus prepared were used in the experiment. The cells were thawed, and were then suspended in an assay medium (D-PBS containing 1 mmol/L IBMX, 2 μmol/L Diclofenac) at a concentration of 5×10^5 cells/mL. PGE2 alone having a final concentration of 10 nmol/L or a solution (10 μL) containing the PGE2 and a test compound was added to the cell suspension (10 μL) to initiate the reaction. After the reaction was performed at room temperature for 1 hour, the amount of cAMP in the cells was quantified in accordance with the method described in cAMP Gs Dynamic kit (CISBIO).
The antagonistic activity (IC50 value) of a test compound was calculated as a percentage of suppression of the reaction at 10 nM, which was a concentration at which a submaximal cAMP production activity was observed when PGE2 alone was employed. In this manner, an IC50 value was determined.

T1 sequence (P43116 whole entry): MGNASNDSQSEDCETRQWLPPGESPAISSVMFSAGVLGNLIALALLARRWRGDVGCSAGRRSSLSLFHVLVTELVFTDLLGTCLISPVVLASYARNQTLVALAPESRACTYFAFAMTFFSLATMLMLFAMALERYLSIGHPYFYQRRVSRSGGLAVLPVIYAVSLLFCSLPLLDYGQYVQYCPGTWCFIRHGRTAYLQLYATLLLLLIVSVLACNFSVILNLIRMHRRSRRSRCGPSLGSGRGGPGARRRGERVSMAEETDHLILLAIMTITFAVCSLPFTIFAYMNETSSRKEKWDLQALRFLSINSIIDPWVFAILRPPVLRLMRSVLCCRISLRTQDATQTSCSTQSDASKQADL

SMILES | IC50 [nM]
Cc1cc(OCCc2ccccc2)cc(C)c1C(=O)Nc1cc([C@H]2C[C@H]2C(=O)O)ccc1C(F)(F)F [Example 18, (1R,2S)-2-[3-{[2,6-Dimethyl-4-(2-phenylethoxy)benzoyl]amino}-4-(trifluoromethyl)phenyl]cyclopropanecarboxylic acid] | 0.9
Cc1cc(OCCc2ccccc2)cc(C)c1C(=O)Nc1cc(C(C)CC(=O)O)ccc1C(F)(F)F (stereo not drawn) [Example 24-1, 3-[3-{[2,6-Dimethyl-4-(2-phenylethoxy)benzoyl]amino}-4-(trifluoromethyl)phenyl]butanoic acid] | 20
Cc1cc(OCCc2ccccc2)cc(C)c1C(=O)Nc1cc(CC(C)C(=O)O)ccc1C(F)(F)F (stereo not drawn) [Example 24-2, 3-[3-f{[2,6-Dimethyl-4-(2-phenylethoxy)benzoyl]amino}-4-(trifluoromethyl)phenyl]-2-methylpropanoic acid] | 12
Cc1cc(OCCc2ccccc2)cc(C)c1C(=O)Nc1cc([C@H]2CC[C@H]2C(=O)O)ccc1C(F)(F)F [Example 25, (1R,2S)-2-[3-{[2,6-Dimethyl-4-(2-phenylethoxy)benzoyl]amino}-4-(trifluoromethyl)phenyl]cyclobutanecarboxylic acid] | 2.2
Cc1cc(OCCc2ccccc2)cc(C)c1C(=O)Nc1cc([C@H]2C[C@@]2(C)C(=O)O)ccc1C(F)(F)F [Example 26, (1R,2R)-2-[3-{[2,6-Dimethyl-4-(2-phenylethoxy)benzoyl]amino}-4-(trifluoromethyl)phenyl]-1-methylcyclopropanecarboxylic acid] | 27
CC(C)c1cc(OCc2ccccc2)ccc1C(=O)Nc1cc([C@H]2C[C@H]2C(=O)O)ccc1C(F)(F)F [Example 28, (1R,2S)-2-[3-{[4-(Benzyloxy)-2-isopropylbenzoyl]amino}-4-(trifluoromethyl)phenyl]cyclopropanecarboxylic acid] | 4
Cc1cc(OCCc2ccccc2)cc(C)c1C(=S)Nc1cc([C@H]2C[C@H]2C(=O)O)ccc1C(F)(F)F [Example 32, (1R,2S)-2-[3-({[2,6-Dimethyl-4-(2-phenylethoxy)phenyl]carbonothioyl}amino)-4-(trifluoromethyl)phenyl]cyclopropanecarboxylic acid] | 13
CCC(C)c1c(C(=O)Nc2cc([C@H]3C[C@H]3C(=O)O)ccc2C(F)(F)F)ccn1CCCc1ccccc1 (stereo partly drawn) [Example 34, (1R,2S)-2-[3-({[2-sec-Butyl-1-(3-phenylpropyl)-1H-pyrrol-3-yl]carbonyl}amino)-4-(trifluoromethyl)phenyl]cyclopropanecarboxylic acid] | < 0.3

Now from value to compound:

IC50 [nM] | SMILES
11 | CC(C)c1c(OCc2ccccc2)cccc1C(=O)Nc1cc([C@H]2C[C@H]2C(=O)O)ccc1C(F)(F)F [Example 29-1, (1R,2S)-2-[3-{[3-(Benzyloxy)-2-isopropylbenzoyl]amino}-4-(trifluoromethyl)phenyl]cyclopropanecarboxylic acid]
8.9 | CC(C)c1nn(CCCc2ccccc2)cc1C(=O)Nc1cc([C@H]2C[C@H]2C(=O)O)ccc1C(F)(F)F [Example 31-1, (1R,2S)-2-[3-({[3-Isopropyl-1-(3-phenylpropyl)-1H-pyrazol-4-yl]carbonyl}amino)-4-(trifluoromethyl)phenyl]cyclopropanecarboxylic acid]
1.3 | CC(C)c1c(C(=O)Nc2cc([C@H]3C[C@H]3C(=O)O)ccc2C(F)(F)F)cnn1CCCc1ccccc1 [Example 31-2, (1R,2S)-2-[3-({[5-Isopropyl-1-(3-phenylpropyl)-1H-pyrazol-4-yl]carbonyl}amino)-4-(trifluoromethyl)phenyl]cyclopropanecarboxylic acid]

What follows are compounds tested on mouse colorectal cancer cell line CT26 (assay: Anti-tumor effect in allogenic transplantation model of mouse colorectal cancer cell line CT26). Conditions: female Balb/C mice, CT26 subcutaneous; 10 mg/kg per single dose, once on day-4, twice per day day-5 to day-25.
Assay type: in vivo
Procedure: The anti-tumor effect of the compound of the present invention was evaluated in an allogenic transplantation model of CT26 that was a mouse colorectal cancer cell line. CT26 was cultured in a RPMI-1640 medium supplemented with 10 vol % of heat-inactivated fetal bovine serum (FBS), 100 units/mL of penicillin and 100 μg/mL of streptomycin in a CO2 incubator. On the day of transplantation, a culture supernatant was removed, CT26 was washed with a phosphate buffered saline (also abbreviated as “PBS”, hereinafter) and was then collected. The collected CT26 was suspended in PBS and was used as cells for transplantation. 300,000 cells for the transplantation were transplanted subcutaneously into female Balb/C mice (Charles River Laboratories Japan) on the right back. Four days after the transplantation, the mice were divided into two groups, i.e., a medium group and a compound A group, each including 10 cases. […] With respect to a tumor volume (mm^3), a shorter diameter and a longer diameter of a tumor were measured with an electronic caliper, and the tumor volume was calculated in accordance with mathematical formula 1 shown below. […]

SMILES | tumor volumes on day-25 of the transplantation compared with medium-administered group
Cc1cc(OCCc2ccccc2)cc(C)c1C(=O)Nc1cc([C@H]2C[C@H]2C(=O)O)ccc1C(F)(F)F [Example 18, (1R,2S)-2-[3-{[2,6-Dimethyl-4-(2-phenylethoxy)benzoyl]amino}-4-(trifluoromethyl)phenyl]cyclopropanecarboxylic acid] | significantly smaller
